Assay results as given in PubChem BioAssay AID2305 (GlaxoSmithKline (GSK), 2010).

system: P. falciparum 3D7 growth, pLDH absorbance; assay: blood-stage malaria parasite growth potency – strain 3D7, dose response (AID 2305)

`O=C(Nc1cccc(-c2ccc(-c3nc4ccc(F)cc4[nH]3)s2)c1)c1cccnc1` and `Cc1ncccc1C(=O)Nc1cccc(-c2cccc(-c3nc4ccc(C(F)(F)F)cc4[nH]3)c2)c1` are within 1.5-fold of each other in IC50: 610 nM for the first, 600 nM for the second.

`Oc1ccc(CNCCCCCCNCCc2ccc(Cl)cc2)cc1O` and `CCCCNCc1ccc(-c2nc(CN(CCCn3ccnc3)C(=O)Nc3ccc(CC)cc3)cs2)cc1` are within 1.5-fold of each other in IC50: 990 nM for the first, 830 nM for the second.

`CC[C@H](C)CNC(=O)c1ccnc(-c2cccc(CN3CCC(N4CCCC4)CC3)c2)c1` and `CC(C)CCN1CCCN(Cc2ccc(C(=O)Nc3ccc(C(C)(C)C)cc3)cc2)CC1` are within 1.5-fold of each other in IC50: 850 nM for the first, 870 nM for the second.

First: CC1CCC(C[C@@H](C(=O)N[C@H](C(=O)Nc2nccs2)[C@@H](C)O)[C@H](CCC(F)(F)F)N(O)C=O)CC1 (some centres not stated)
Second: CCOc1c(OC)ccc2c1CCN(CCN1CCC(CNC(=O)c3ccc(-c4ccc(C(F)(F)F)cc4)cc3)CC1)C2
The IC50 of the first is 1.6-fold lower: 540 nM for the first, 850 nM for the second.

First: Cc1cc(=O)c(-c2ccc(OCCSc3ccc(C(F)(F)F)cn3)cc2)c(C)[nH]1
Second: CC(C)NCc1ccc(-c2ccc(-c3nc4ccc(C(F)(F)F)cc4[nH]3)cc2)cc1
The IC50 of the first is 2-fold higher: 530 nM for the first, 270 nM for the second.

`COc1ccc(CN2CCC(Oc3cccc(NC(=O)c4ccc(C(F)(F)F)cc4)c3)CC2)cc1` and `CN(C)Cc1ccc(-c2cccc(NC(=O)c3ccc(Cl)cc3)c2)cc1` are within 1.5-fold of each other in IC50: 740 nM for the first, 900 nM for the second.

`COc1ccc(-c2csc3ncnc(Cl)c23)cc1OC` and `COc1cc(C(=O)Nc2ccc(-c3nc4ccccc4[nH]3)cc2)cc(OC)c1OC` are within 1.5-fold of each other in IC50: 770 nM for the first, 980 nM for the second.

`COc1ccc2nccc([C@@H](O)CN3CCC(NS(=O)(=O)c4cc(Br)c(Br)s4)CC3)c2c1` and `O=C(/C=C/c1ccc([N+](=O)[O-])cc1)N1CCC(NS(=O)(=O)c2ccc(Br)cc2)CC1` are within 1.5-fold of each other in IC50: 850 nM for the first, 1050 nM for the second.

`COc1ccc(NC(=O)Nc2cccc(-c3cccc(-c4nc5c(C)cccc5[nH]4)c3)c2)cc1` and `CC(=O)Nc1cccc(C(=O)Nc2cccc(-c3cccc(-c4nc5ccccc5[nH]4)c3)c2)c1` are within 1.5-fold of each other in IC50: 400 nM for the first, 590 nM for the second.

First: CN1C(C)(C)CC(NC(=O)c2ccc(-c3nc4ccc(Cl)cc4[nH]3)cc2)CC1(C)C
Second: CN1CCN(c2cc(NC(=O)c3ccc(-c4ccc(C#N)cc4)cc3)ccc2Cl)CC1
The IC50 of the first is 2.2-fold higher: 990 nM for the first, 460 nM for the second.

`Cc1noc(C)c1CN1Cc2ccccc2OC2(CCN(Cc3c[nH]c4cnccc34)CC2)C1` and `Cn1nc(-c2ccc(CNC3CCc4ccccc43)cc2)c2cnc(NCCCN3CCCC3)nc21` (configuration not stated) are within 1.5-fold of each other in IC50: 1070 nM for the first, 1110 nM for the second.

`CN1CCC(NCc2cccc(-c3cccc(-c4nc5ccc(C(F)(F)F)cc5[nH]4)c3)c2)CC1` and `COc1ccc(CNCc2ccc(-c3cccc(-c4nc5ccc(F)cc5[nH]4)c3)cc2)cc1` are within 1.5-fold of each other in IC50: 140 nM for the first, 200 nM for the second.

First: COc1ccc(CNC2CCN(c3ccc(NC(=O)c4cccc(Cl)c4)cc3)CC2)cc1OC
Second: O=C(Nc1ccccc1Oc1ccccc1)NC1CCN(c2ccnc3cc(Cl)ccc23)C1 (configuration not stated)
The IC50 of the first is 6-fold higher: 1020 nM for the first, 170 nM for the second. The second is the more potent here.

`O=c1c2ccccc2[nH]c2cc(Cl)ccc12` and `Cc1cc(NC(c2ccc(Cl)cc2)c2ccc3cccnc3c2O)no1` (configuration not stated) are within 1.5-fold of each other in IC50: 870 nM for the first, 1090 nM for the second.

`CC(C)C[C@H](Nc1ccc(C#N)c2ccccc12)C(=O)NC(C)(C)C12CC3CC(CC(C3)C1)C2` and `Cc1cccc2[nH]c(-c3cccc(-c4ccc(NC(=O)C(C)C(=O)NC(C)C)cc4)c3)nc12` (configuration not stated) are within 1.5-fold of each other in IC50: 920 nM for the first, 1000 nM for the second.

Compared with `Cc1cccc2[nH]c(-c3cccc(-c4ccc(C(=O)NCc5ccccc5S(C)(=O)=O)cc4)c3)nc12`, `CN(C)C(CNC(=O)c1cc(-c2ccncc2)c(-c2ccc(NC(=O)Nc3cccc(Cl)c3)cc2)o1)c1ccccc1` (configuration not stated) is 4.2-fold lower in IC50: 750 nM for the first, 180 nM for the second.

First: Oc1ccc(CCCNc2nc(NCc3cccc4ccccc34)nc(NC3CCNCC3)n2)cc1
Second: CN1CCN(CCCN(Cc2ccc(-c3ccc(CNCc4ccc5c(c4)OCO5)cc3)cc2)C(=O)Nc2ccccc2)CC1
The IC50 of the first is 1.6-fold higher: 1130 nM for the first, 710 nM for the second. The second is the more potent here.

`Cc1cc(C)cc(OCC(O)CN(Cc2cc(Cl)cc(Cl)c2)C(=O)Nc2ccc([N+](=O)[O-])cc2)c1` (configuration not stated) and `Cc1nc2ccc3ccc(CNc4ccc5c(c4)CN([C@H](CCC(=O)O)C(=O)O)C5=O)cc3c2c(=O)[nH]1` are within 1.5-fold of each other in IC50: 800 nM for the first, 860 nM for the second.

Work on `O=C(c1cc(C(=O)Nc2ccc(F)cc2)c(=O)n(-c2ccc(F)cc2)c1)c1cc(Cl)ccc1O` yielded an IC50 of 220 nM.
